The values below come from patent publication US20170260178A1 (SPERO GYRASE, INC., priority 2012, published 2017).

SMILES strings stand for the structures. Read-outs that look alike come from different tables or passages of the source.

One test has as its system S. pyogenes (ATCC 51339). The test can be described thus: Bacterial assay: MIC against S. pyogenes. The conditions noted are these: Streptococcus pyogenes, ATCC51339, read-out: minimal inhibitory concentration (MIC). The format is cell-based, Streptococcus pyogenes.
The next test concerns S. aureus (ATCC 29213). The experiment in a line: Bacterial assay: MIC against S. aureus. Format: cell-based, Staphylococcus aureus. As to conditions: Staphylococcus aureus, ATCC29213, read-out: minimal inhibitory concentration (MIC).
Test [1] deals with H. influenzae (ATCC 49247). The test can be described thus: Bacterial assay: MIC against H. influenzae. The format is cell-based. The conditions noted are these: Haemophilus influenzae.
[2] abbreviates: ATCC49247, H. influenzae ATCC 49247, read-out: minimal inhibitory concentration (MIC).

As to `CCNC(=O)Nc1nc2cc(-c3cnc(N4CCC(C)(C(=O)O)CC4)nc3)cc(-c3cc(C(C)(C)O)ccn3)c2s1` [Compound 74, 1-[5-[2-(ethylcarbamoylamino)-7-[4-(1-hydroxy-1-methyl-ethyl)-2-pyridyl]-1,3-benzothiazol-5-yl]pyrimidin-2-yl]-4-methyl-piperidine-4-carboxylic acid], the MIC is at most 1 µg/mL with S. pyogenes (ATCC 51339), at most 1 µg/mL in the test on S. aureus (ATCC 29213) and at most 2 µg/mL in test [1] (setting [2]).
As for `CCNC(=O)Nc1nc2cc(-c3cnc([C@H](C)O)nc3)cc(-c3ccccn3)c2s1` [Compound 23, 1-ethyl-3-[5-[2-[(1S)-1-hydroxyethyl]pyrimidin-5-yl]-7-(2-pyridyl)-1,3-benzothiazol-2-yl]urea], the values for the MIC (in the test with S. pyogenes (ATCC 51339); in the test with S. aureus (ATCC 29213); in test [1] (setting [2])) were at most 1 µg/mL, at most 1 µg/mL and at most 2 µg/mL, respectively.
For the compound `CCNC(=O)Nc1nc2cc(-c3cnc(C(O)CC)nc3)cc(-c3ccccn3)c2s1` (stereo not drawn) [Compound 59, 1-ethyl-3-[5-[2-(1-hydroxypropyl)pyrimidin-5-yl]-7-(2-pyridyl)-1,3-benzothiazol-2-yl]urea], the MIC in the test with S. pyogenes (ATCC 51339) is at most 1 µg/mL; with S. aureus (ATCC 29213), at most 1 µg/mL; in test [1] (setting [2]) it was at most 2 µg/mL.
On to `CCNC(=O)Nc1nc2cc(-c3cnc([C@@]4(O)CCOC[C@H]4O)nc3)cc(-c3ccccn3)c2s1` (relative stereo) [Compound 8, 1-[5-[2-[(3R*,4S*)-3,4-dihydroxytetrahydropyran-4-yl]pyrimidin-5-yl]-7-(2-pyridyl)-1,3-benzothiazol-2-yl]-3-ethyl-urea], for which the MIC in the test with S. pyogenes (ATCC 51339) is at most 1 µg/mL; in the test with S. aureus (ATCC 29213), at most 1 µg/mL; in test [1] (setting [2]), at most 2 µg/mL.
In the case of `CCNC(=O)Nc1nc2cc(-c3cnc(C(C)O)nc3)cc(-c3cc(CP(=O)(OCC)OCC)ccn3)c2s1` (stereo not drawn) [Compound 100, 1-[7-[4-(diethoxyphosphorylmethyl)-2-pyridyl]-5-[2-(1-hydroxyethyl)pyrimidin-5-yl]-1,3-benzothiazol-2-yl]-3-ethyl-urea], the MIC with S. pyogenes (ATCC 51339) was at most 1 µg/mL; in the test on S. aureus (ATCC 29213), at most 1 µg/mL; in test [1] (ATCC49247, read-out: minimal inhibitory concentration (MIC)), at most 2 µg/mL.
For `CCNC(=O)Nc1nc2cc(-c3cnc([C@@H](O)[C@@H](C)O)nc3)cc(-c3ccccn3)c2s1` (relative stereo) [Compound 118, 1-[5-[2-[(1R*,2R*)-1,2-dihydroxypropyl]pyrimidin-5-yl]-7-(2-pyridyl)-1,3-benzothiazol-2-yl]-3-ethyl-urea], the values for the MIC (in the test with S. pyogenes (ATCC 51339); in the test with S. aureus (ATCC 29213); in test [1] (setting [2])) were at most 1 µg/mL, at most 1 µg/mL and at most 2 µg/mL, respectively.
With `CCNC(=O)Nc1nc2cc(-c3cnc(C(C)O)nc3)cc(-c3ccc(C(C)O)cn3)c2s1` (stereo not drawn) [Compound 168, 1-ethyl-3-[7-[5-(1-hydroxyethyl)-2-pyridyl]-5-[2-(1-hydroxyethyl)pyrimidin-5-yl]-1,3-benzothiazol-2-yl]urea], the results for the MIC (in the test on S. pyogenes (ATCC 51339); in the test with S. aureus (ATCC 29213); in test [1] (setting [2])) were at most 1 µg/mL, at most 1 µg/mL and at most 2 µg/mL, respectively.
For `CCNC(=O)Nc1nc2cc(-c3cnc([C@@H](C)O)nc3)cc(-c3cc(CN4CCOCC4)ccn3)c2s1` [Compound 121, 1-ethyl-3-[5-[2-[(1R)-1-hydroxyethyl]pyrimidin-5-yl]-7-[4-(morpholinomethyl)-2-pyridyl]-1,3-benzothiazol-2-yl]urea], the MIC with S. pyogenes (ATCC 51339) was at most 1 µg/mL; in the test with S. aureus (ATCC 29213), at most 1 µg/mL; in test [1] (setting [2]), at most 2 µg/mL.
Regarding `CCNC(=O)Nc1nc2cc(-c3cnc(C(O)CO)nc3)cc(-c3ccccn3)c2s1` (stereo not drawn) [Compound 40, 1-[5-[2-(1,2-dihydroxyethyl)pyrimidin-5-yl]-7-(2-pyridyl)-1,3-benzothiazol-2-yl]-3-ethyl-urea], the MIC in the test with S. pyogenes (ATCC 51339) is at most 1 µg/mL; in the test on S. aureus (ATCC 29213) it was at most 1 µg/mL; in test [1] (setting [2]), at most 2 µg/mL.
Consider `CCNC(=O)Nc1nc2cc(-c3cnc(C4(O)CCOCC4)nc3)cc(-c3cc(CN4CCOCC4)ccn3)c2s1` [Compound 125, 1-ethyl-3-[5-[2-(4-hydroxytetrahydropyran-4-yl)pyrimidin-5-yl]-7-[4-(morpholinomethyl)-2-pyridyl]-1,3-benzothiazol-2-yl]urea], for which the MIC was at most 1 µg/mL in the test with S. pyogenes (ATCC 51339), at most 1 µg/mL with S. aureus (ATCC 29213) and at most 2 µg/mL in test [1] (setting [2]).
`CCNC(=O)Nc1nc2cc(-c3cnc(C(C)O)nc3)cc(-c3cc(CN4CC(OC)C4)ccn3)c2s1` (stereo not drawn) [Compound 76, 1-ethyl-3-[5-[2-(1-hydroxyethyl)pyrimidin-5-yl]-7-[4-[(3-methoxyazetidin-1-yl)methyl]-2-pyridyl]-1,3-benzothiazol-2-yl]urea]: the MIC in the test on S. pyogenes (ATCC 51339) was at most 1 µg/mL; in the test on S. aureus (ATCC 29213) it was at most 1 µg/mL; in test [1] (setting [2]), at most 2 µg/mL.
With `CCNC(=O)Nc1nc2cc(-c3cnc(C(O)C4CC4)nc3)cc(-c3ccccn3)c2s1` (stereo not drawn) [Compound 58, 1-[5-[2-[cyclopropyl(hydroxy)methyl]pyrimidin-5-yl]-7-(2-pyridyl)-1,3-benzothiazol-2-yl]-3-ethyl-urea], the results for the MIC (with S. pyogenes (ATCC 51339); in the test on S. aureus (ATCC 29213); in test [1] (setting [2])) were at most 1 µg/mL, at most 1 µg/mL and at most 2 µg/mL, respectively.
Turning to `CCNC(=O)Nc1nc2cc(-c3cnc(C(C)O)nc3)cc(-c3ncccn3)c2s1` (stereo not drawn) [Compound 115, 1-ethyl-3-[5-[2-(1-hydroxyethyl)pyrimidin-5-yl]-7-pyrimidin-2-yl-1,3-benzothiazol-2-yl]urea], the values for the MIC (in the test on S. pyogenes (ATCC 51339); in the test with S. aureus (ATCC 29213); in test [1] (setting [2])) were at most 1 µg/mL, at most 1 µg/mL and at most 2 µg/mL, respectively.
For the compound `CCNC(=O)Nc1nc2cc(-c3cnc(C(C)O)nc3)cc(-c3cc(CN4CC5(COC5)C4)ccn3)c2s1` (stereo not drawn) [Compound 73, 1-ethyl-3-[5-[2-(1-hydroxyethyl)pyrimidin-5-yl]-7-[4-(6-oxa-2-azaspiro[3.3]heptan-2-ylmethyl)-2-pyridyl]-1,3-benzothiazol-2-yl]urea], the MIC in the test on S. pyogenes (ATCC 51339) was at most 1 µg/mL; in the test with S. aureus (ATCC 29213), at most 1 µg/mL; in test [1] (setting [2]), at most 2 µg/mL.
Regarding `CCNC(=O)Nc1nc2cc(-c3cnc(C(C)(C)O)nc3)cc(-c3cc(CN4CCOCC4)ccn3)c2s1` [Compound 28, 1-ethyl-3-[5-[2-(1-hydroxy-1-methyl-ethyl)pyrimidin-5-yl]-7-[4-(morpholinomethyl)-2-pyridyl]-1,3-benzothiazol-2-yl]urea], the MIC in the test with S. pyogenes (ATCC 51339) was at most 1 µg/mL; in the test with S. aureus (ATCC 29213) it was at most 1 µg/mL; in test [1] (setting [2]) it was at most 2 µg/mL.
Consider `CCNC(=O)Nc1nc2cc(-c3cnc([C@H](C)O)nc3)cc(-c3cc(CN4CCOCC4)ccn3)c2s1` [Compound 122, 1-ethyl-3-[5-[2-[(1S)-1-hydroxyethyl]pyrimidin-5-yl]-7-[4-(morpholinomethyl)-2-pyridyl]-1,3-benzothiazol-2-yl]urea], for which the values for the MIC (in the test with S. pyogenes (ATCC 51339); with S. aureus (ATCC 29213); in test [1] (setting [2])) were at most 1 µg/mL, at most 1 µg/mL and at most 2 µg/mL, respectively.
As for `CCNC(=O)Nc1nc2cc(-c3ccc(C(C)(C)O)nc3)cc(-c3ccccn3)c2s1` [Compound 27, 1-ethyl-3-[5-[6-(1-hydroxy-1-methyl-ethyl)-3-pyridyl]-7-(2-pyridyl)-1,3-benzothiazol-2-yl]urea], the MIC is at most 1 µg/mL in the test on S. pyogenes (ATCC 51339), at most 1 µg/mL with S. aureus (ATCC 29213) and at most 2 µg/mL in test [1] (setting [2]).
Consider `CCNC(=O)Nc1nc2cc(-c3cnc([C@@H](C)OC(=O)[C@H](N)C(C)C)nc3)cc(-c3ccccn3)c2s1` [Compound 62, [(1R)-1-[5-[2-(ethylcarbamoylamino)-7-(2-pyridyl)-1,3-benzothiazol-5-yl]pyrimidin-2-yl]ethyl] (2R)-2-amino-3-methyl-butanoate], for which the values for the MIC (in the test with S. pyogenes (ATCC 51339); in the test on S. aureus (ATCC 29213); in test [1] (setting [2])) were at most 1 µg/mL, at most 1 µg/mL and at most 2 µg/mL, respectively.
On to `CCNC(=O)Nc1nc2cc(-c3cnc(C(C)O)nc3)cc(-c3ccc(C)cn3)c2s1` (stereo not drawn) [Compound 158, 1-ethyl-3-[5-[2-[1-hydroxyethyl]pyrimidin-5-yl]-7-(5-methyl-2-pyridyl)-1,3-benzothiazol-2-yl]urea], for which the MIC in the test on S. pyogenes (ATCC 51339) is at most 1 µg/mL; in the test with S. aureus (ATCC 29213) it was at most 1 µg/mL; in test [1] (setting [2]), at most 2 µg/mL.
On to `CCNC(=O)Nc1nc2cc(-c3cnc([C@@H](O)[C@H](O)C(F)F)nc3)cc(-c3ccccn3)c2s1` (relative stereo) [Compound 130, 1-[5-[2-[(1R*,2S*)-3,3-difluoro-1,2-dihydroxy-propyl]pyrimidin-5-yl]-7-(2-pyridyl)-1,3-benzothiazol-2-yl]-3-ethyl-urea], for which the MIC in the test on S. pyogenes (ATCC 51339) was at most 1 µg/mL; in the test with S. aureus (ATCC 29213), at most 1 µg/mL; in test [1] (setting [2]), at most 2 µg/mL.
Take `CCNC(=O)Nc1nc2cc(-c3cnc(C(C)O)nc3)cc(-c3cc(CN4CCOCC4C)ccn3)c2s1` (stereo not drawn) [Compound 68, 1-ethyl-3-[5-[2-(1-hydroxyethyl)pyrimidin-5-yl]-7-[4-[(3-methylmorpholin-4-yl)methyl]-2-pyridyl]-1,3-benzothiazol-2-yl]urea]: the figures for the MIC (with S. pyogenes (ATCC 51339); in the test with S. aureus (ATCC 29213); in test [1] (setting [2])) were at most 1 µg/mL, at most 1 µg/mL and at most 2 µg/mL, respectively.
Take `CCNC(=O)Nc1nc2cc(-c3cnc(C(C)(O)CO)nc3)cc(-c3ccccn3)c2s1` (stereo not drawn) [Compound 157, 1-[5-[2-[1,2-dihydroxy-1-methyl-ethyl]pyrimidin-5-yl]-7-(2-pyridyl)-1,3-benzothiazol-2-yl]-3-ethyl-urea]: the MIC in the test on S. pyogenes (ATCC 51339) is at most 1 µg/mL; with S. aureus (ATCC 29213), at most 1 µg/mL; in test [1] (setting [2]), at most 2 µg/mL.
In the case of `CCNC(=O)Nc1nc2cc(-c3cnc(C(C)(C)O)nc3)cc(-c3cc(OCCCN4CCOCC4)ccn3)c2s1` [Compound 38, 1-ethyl-3-[5-[2-(1-hydroxy-1-methyl-ethyl)pyrimidin-5-yl]-7-[4-(3-morpholinopropoxy)-2-pyridyl]-1,3-benzothiazol-2-yl]urea], the MIC was at most 1 µg/mL in the test with S. pyogenes (ATCC 51339), at most 1 µg/mL in the test with S. aureus (ATCC 29213) and at most 2 µg/mL in test [1] (setting [2]).
Regarding `CCNC(=O)Nc1nc2cc(-c3cnc(C4(O)COC4)nc3)cc(-c3cc(CN4CCOCC4)ccn3)c2s1` [Compound 154, 1-ethyl-3-[5-[2-(3-hydroxyoxetan-3-yl)pyrimidin-5-yl]-7-[4-(morpholinomethyl)-2-pyridyl]-1,3-benzothiazol-2-yl]urea], the results for the MIC (with S. pyogenes (ATCC 51339); with S. aureus (ATCC 29213); in test [1] (setting [2])) were at most 1 µg/mL, at most 1 µg/mL and at most 2 µg/mL, respectively.
